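Protocol summary: plate cells (96-well), add compound at 5 concentrations, incubate 48 h, interpolate endpoints linearly. GI50 = concentration required for 50% inhibition of growth.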 Active and inactive are the calls of the source. Cut-off read from the data, not from the text of the source: active = GI50 up to about 1.1 µM and inactive = higher.
How the values were obtained:
Experiment in all cases: NCI anticancer screen, dose series, 48 h
[1] = test system: SF-539
[2] = test system: MOLT-4
[3] = test system: HOP-92
[4] = test system: COLO 205
[5] = test system: M14
[6] = test system: NCI-H226
[7] = test system: LOX IMVI
[8] = test system: CCRF-CEM
[9] = test system: LXFL 529
[10] = test system: HCC 2998
[11] = test system: SK-MEL-28
[12] = test system: IGROV-1
[13] = test system: SNB-75
[14] = test system: UO-31
[15] = test system: NCI-H23
[16] = test system: 786-0
[17] = test system: A498
[18] = test system: DU-145
[19] = test system: NCI/ADR-RES
[20] = test system: MCF7

Row | SMILES | GI50 [1] | GI50 [2] | GI50 [3] | GI50 [4] | GI50 [5] | GI50 [6] | GI50 [7] | GI50 [8] | GI50 [9] | GI50 [10] | GI50 [11] | GI50 [12] | GI50 [13] | GI50 [14] | GI50 [15] | GI50 [16] | GI50 [17] | GI50 [18] | GI50 [19] | GI50 [20]
1 | CCOc1cccc2ccc[n+](CC)c12 | > 100 µM (inactive) | > 100 µM (inactive) | 61 µM (inactive) | 40.8 µM (inactive) | > 100 µM (inactive) | > 100 µM (inactive) | 91.6 µM (inactive) | 55.8 µM (inactive) | 54.7 µM (inactive) | > 100 µM (inactive) | > 100 µM (inactive) | > 100 µM (inactive) | > 100 µM (inactive) | > 100 µM (inactive) | 15.9 µM (inactive) | > 100 µM (inactive) | – | – | – | –
2 | CNS(=O)(=O)NN(C)S(=O)(=O)c1ccc(OC)cc1 | > 100 µM (inactive) | > 100 µM (inactive) | – | > 100 µM (inactive) | > 100 µM (inactive) | > 100 µM (inactive) | 91.8 µM (inactive) | > 100 µM (inactive) | > 100 µM (inactive) | > 100 µM (inactive) | – | > 100 µM (inactive) | > 100 µM (inactive) | > 100 µM (inactive) | > 100 µM (inactive) | > 100 µM (inactive) | > 100 µM (inactive) | – | – | –
3 | CC1(C)CC(=O)C/C(=N/c2ccc([N+](=O)[O-])cc2)C1 | – | 58.6 µM (inactive) | – | 29.6 µM (inactive) | > 100 µM (inactive) | > 100 µM (inactive) | 19.2 µM (inactive) | 20.4 µM (inactive) | > 100 µM (inactive) | > 100 µM (inactive) | > 100 µM (inactive) | > 100 µM (inactive) | > 100 µM (inactive) | 54.6 µM (inactive) | > 100 µM (inactive) | > 100 µM (inactive) | > 100 µM (inactive) | – | – | –
4 | N#Cc1cn(-c2c3ccccc3nc3ccccc23)c(=O)[nH]c1=O | 2.51 µM (inactive) | 4.15 µM (inactive) | 7.73 µM (inactive) | 5.43 µM (inactive) | 11.6 µM (inactive) | – | 5.12 µM (inactive) | 7.29 µM (inactive) | 9.04 µM (inactive) | – | 16.8 µM (inactive) | 23.3 µM (inactive) | 16.7 µM (inactive) | 3.8 µM (inactive) | > 10 µM (inactive) | 3.29 µM (inactive) | – | – | – | –
5 | CN(N=O)C(=O)NNC(=O)N(C)N=O | 49.1 µM (inactive) | 35.2 µM (inactive) | 47.1 µM (inactive) | 50.1 µM (inactive) | 93.5 µM (inactive) | > 100 µM (inactive) | 44.4 µM (inactive) | 31.7 µM (inactive) | – | > 100 µM (inactive) | > 100 µM (inactive) | 65.8 µM (inactive) | > 100 µM (inactive) | 83.9 µM (inactive) | 71.8 µM (inactive) | 48.3 µM (inactive) | > 100 µM (inactive) | > 100 µM (inactive) | > 100 µM (inactive) | 35.6 µM (inactive)
6 | Nc1ccc(C(=O)NN2C(=O)C(Cl)C2c2ccccc2Cl)cc1 (stereo not drawn) | 7.93 µM (inactive) | 1.59 µM (inactive) | 4.48 µM (inactive) | 14.6 µM (inactive) | 13.1 µM (inactive) | 16.8 µM (inactive) | 1.41 µM (inactive) | 1.81 µM (inactive) | 2.06 µM (inactive) | 16.5 µM (inactive) | 14.8 µM (inactive) | 13.4 µM (inactive) | 16.5 µM (inactive) | 17 µM (inactive) | 12.3 µM (inactive) | 1.69 µM (inactive) | – | – | – | –
7 | COc1cc2c(c(OC)c1OC)C(=O)[C@@H]1[C@H]2N1C(=O)NCCCl | 72.4 µM (inactive) | 50.7 µM (inactive) | > 100 µM (inactive) | 27 µM (inactive) | 50.4 µM (inactive) | 64 µM (inactive) | 39.3 µM (inactive) | 30.1 µM (inactive) | – | > 100 µM (inactive) | > 100 µM (inactive) | 33.5 µM (inactive) | 40.9 µM (inactive) | 73.5 µM (inactive) | 43.4 µM (inactive) | > 100 µM (inactive) | 70.1 µM (inactive) | 66.8 µM (inactive) | > 100 µM (inactive) | 27.6 µM (inactive)
8 | C[n+]1c(-c2ccc(NC(=O)c3ccc(C(=O)Nc4ccc(-c5cn6ccccc6[n+]5C)cc4)cc3)cc2)cn2ccccc21 | > 70.5 µM (inactive) | > 67.9 µM (inactive) | > 100 µM (inactive) | > 56.2 µM (inactive) | > 100 µM (inactive) | > 100 µM (inactive) | > 100 µM (inactive) | > 65.6 µM (inactive) | – | > 100 µM (inactive) | > 100 µM (inactive) | > 66.5 µM (inactive) | 60.8 µM (inactive) | > 100 µM (inactive) | > 100 µM (inactive) | 29 µM (inactive) | 39.1 µM (inactive) | > 100 µM (inactive) | > 100 µM (inactive) | > 75 µM (inactive)
9 | Cc1cc(=O)c2c(O)cc3c(c2o1)CC=C(COC1OC(COC2OC(CO)C(O)C(O)C2O)C(O)C(O)C1O)CO3 (stereo not drawn) | > 100 µM (inactive) | > 100 µM (inactive) | > 100 µM (inactive) | > 100 µM (inactive) | > 100 µM (inactive) | > 100 µM (inactive) | > 100 µM (inactive) | > 100 µM (inactive) | > 100 µM (inactive) | > 100 µM (inactive) | > 100 µM (inactive) | > 100 µM (inactive) | > 100 µM (inactive) | > 100 µM (inactive) | > 100 µM (inactive) | > 100 µM (inactive) | – | – | – | –
10 | Cc1cc2c(=O)cc(-c3ccc(F)cc3)oc2c(C(=O)O)c1C | > 100 µM (inactive) | > 100 µM (inactive) | – | > 100 µM (inactive) | > 100 µM (inactive) | > 100 µM (inactive) | > 100 µM (inactive) | > 100 µM (inactive) | > 100 µM (inactive) | – | > 100 µM (inactive) | > 100 µM (inactive) | > 100 µM (inactive) | > 100 µM (inactive) | > 100 µM (inactive) | > 100 µM (inactive) | – | – | – | –
11 | C=C(C(=O)OC)c1cc2ccccc2n1S(=O)(=O)c1ccccc1 | 1.62 µM (inactive) | 2.21 µM (inactive) | 0.927 µM (active) | 1.95 µM (inactive) | 2.67 µM (inactive) | 2.36 µM (inactive) | 2.43 µM (inactive) | 1.24 µM (inactive) | – | 4 µM (inactive) | 2.38 µM (inactive) | 1.55 µM (inactive) | 3.3 µM (inactive) | 2.36 µM (inactive) | 3.44 µM (inactive) | 6.05 µM (inactive) | 2.15 µM (inactive) | 2.69 µM (inactive) | 3.37 µM (inactive) | 1.38 µM (inactive)
12 | CC(C)N(C(C)C)S(=O)(=O)C[C@]12CC[C@H](CC13OCC(CS(=O)(=O)c1ccccc1)O3)C2(C)C (stereo partly drawn) | 44.8 µM (inactive) | 6.98 µM (inactive) | > 24.3 µM (inactive) | 17.6 µM (inactive) | 47 µM (inactive) | 34.1 µM (inactive) | 64.6 µM (inactive) | 32.1 µM (inactive) | – | 54.5 µM (inactive) | > 93.5 µM (inactive) | > 28.7 µM (inactive) | 27.6 µM (inactive) | 69.5 µM (inactive) | 47.3 µM (inactive) | 45.9 µM (inactive) | 56.6 µM (inactive) | 74.6 µM (inactive) | 41.9 µM (inactive) | 36 µM (inactive)
13 | CCOc1cc(NC(C)=O)ccc1C(=O)NN1C(=O)C(Cl)C1c1ccco1 (stereo not drawn) | 14.9 µM (inactive) | 7.01 µM (inactive) | 19.1 µM (inactive) | 17.2 µM (inactive) | 15.4 µM (inactive) | 18.5 µM (inactive) | 3.99 µM (inactive) | 4.58 µM (inactive) | – | 16 µM (inactive) | 22.6 µM (inactive) | 13.1 µM (inactive) | 13.8 µM (inactive) | 2.86 µM (inactive) | 16.6 µM (inactive) | 16.1 µM (inactive) | 16.4 µM (inactive) | 17.3 µM (inactive) | 33.7 µM (inactive) | 13.4 µM (inactive)
14 | CCNc1ccc2c(c1)Cc1ccccc1-2 | 43.8 µM (inactive) | 12.9 µM (inactive) | 21.2 µM (inactive) | 64.9 µM (inactive) | 66.5 µM (inactive) | 54.7 µM (inactive) | 32.3 µM (inactive) | > 100 µM (inactive) | – | 9.71 µM (inactive) | > 100 µM (inactive) | 37 µM (inactive) | > 100 µM (inactive) | 52.4 µM (inactive) | 14.3 µM (inactive) | > 100 µM (inactive) | 43.3 µM (inactive) | 59.8 µM (inactive) | > 100 µM (inactive) | 23.7 µM (inactive)
15 | O=C(O)CSc1nnc(Cc2ccccc2)[nH]1 | > 100 µM (inactive) | > 100 µM (inactive) | > 100 µM (inactive) | – | > 100 µM (inactive) | > 100 µM (inactive) | > 100 µM (inactive) | > 100 µM (inactive) | > 100 µM (inactive) | > 100 µM (inactive) | > 100 µM (inactive) | > 100 µM (inactive) | – | > 100 µM (inactive) | > 100 µM (inactive) | > 100 µM (inactive) | – | – | – | –
16 | CC1(C)C(=NN=C(N)N)C(C)(C)C1=NN=C(N)N | > 100 µM (inactive) | > 100 µM (inactive) | > 100 µM (inactive) | > 100 µM (inactive) | > 100 µM (inactive) | > 100 µM (inactive) | > 100 µM (inactive) | – | > 100 µM (inactive) | > 100 µM (inactive) | > 100 µM (inactive) | > 100 µM (inactive) | > 100 µM (inactive) | > 100 µM (inactive) | > 100 µM (inactive) | > 100 µM (inactive) | – | – | – | –

Reference: ChEMBL document CHEMBL1201862, “PubChem BioAssay data set” (2004)
